Our source for the melting point values is a melting point compilation (Tetko et al.).

Molecules are shown by their SMILES. Bounds are passed on as bounds.

The term melting point denotes the temperature of the solid-liquid transition. In turn, `CC(C)(C)OC(=O)NCCCC(=O)O` returned a melting point of 55 °C.

Regarding `NS(=O)(=O)c1cc(Cl)sc1Cl`, the melting point was 131 to 133 °C.

For the molecule `CC(O)C(O)(c1ccccc1)c1ccccc1` (stereo not drawn), the melting point came out at 92 °C.

In turn, `Cc1nc([N+](=O)[O-])c(Br)n1CCC#N` returned a melting point of 152 to 155 °C.

The molecule `CC(C)CCOC(=O)C=Cc1ccc(C=CC(=O)OCCC(C)C)c([N+](=O)[O-])c1` came in with a melting point of 93 to 94 °C.

Turning to `Cc1ccc(O)c(-n2nc3ccccc3n2)c1`, the melting point was found to be 132 °C.

`C=CCc1ccc2c(c1)OCO2` gave a melting point of 11.2 °C.

Regarding `Oc1c(Cl)cc(Cl)cc1Sc1cc(Cl)cc(Cl)c1O`, the melting point was 188 °C.

The molecule `Oc1cccc(CN2CCCCC2)c1` returned a melting point of 140 °C.

`O=C1OC(C2COC3(CCCCC3)O2)C2OC3(CCCCC3)OC12` (stereo not drawn) yielded a melting point of 110 to 113 °C.

As to `CSC(C)=NOC(=O)N(C)SN(C)C(=O)ON=C(C)SC`, the melting point amounted to 173 °C.

Take `CC(C)=CCCC(C)C1CCC2C3CC=C4CC(O)CCC4(C)C3CCC12C` (stereo not drawn): the melting point is 122 °C.

Molecule `O=[N+]([O-])c1cccc(-c2nnc3n2NC(c2ccc(Cl)cc2)S3)c1` (stereo not drawn) gave a melting point of 199 °C.

As to `O=S(=O)(C[C@@H](COCc1ccccc1)OCc1ccccc1)c1ccccc1`, the melting point was 55 to 56 °C.

In turn, `O=C(Oc1ccc2ccccc2c1)c1cccc(S(=O)(=O)Oc2ccc3ccccc3c2)c1` yielded a melting point of 172 °C.

With `CN(C)CCC#N`, the melting point was -43 °C.

As for `CC1CC(C)C(=O)C(C(O)CC2CC(=O)NC(=O)C2)C1` (stereo not drawn), the melting point was 119 °C.

Turning to `CCCCCCCC[C@@H](O)CO`, the melting point fell in the range of 60 to 62 °C.

Molecule `CC=CCC=CCCC(=O)C1OC1C(N)=O` (stereo not drawn) came in with a melting point of 93.5 °C.

`CC(=O)C=CC1C(C)=CCC(C)C1(C)C` (stereo not drawn) came in with a melting point of under 25 °C.

With `CC(C)NCC(O)COc1ccc(CCOCC2CC2)cc1` (stereo not drawn), the melting point amounted to 71 °C.

The molecule `O=C(O)CCCCc1ccc(O)cc1` came in with a melting point of 118 °C.

With `Cc1ccc(C(O)(c2ccc(C)cc2)C2(C)CCC(C(=O)O)C(C)(C)O2)cc1` (stereo not drawn), the melting point is 152 °C.

As to `O=C(O)CSc1ccnc2cc(Cl)ccc12`, the melting point was 223 to 225 °C.

In turn, `CC(=O)c1nn(-c2cccc(C)c2C)c(=N)s1` yielded a melting point of 170 °C.

In turn, `Cc1nc2ccccc2n1CCCC(=O)O` came in with a melting point of 234 to 238 °C.

For `CCc1cccc(Cc2ccccc2)c1`, the melting point was -9 °C.

Molecule `CCCCCCCCCC=CC(=O)O` returned a melting point of 17.1 °C.

On to `CCc1c(C)c[nH]c1C`, for which the melting point was determined as 0 °C.

As to `O=C(O)CCc1ccc(F)cc1`, the melting point was found to be 90 °C.

`Cc1c(F)c(F)c(CBr)c(F)c1F` displayed a melting point of 42 °C.

`Cc1nc([N+](=O)[O-])c(Br)[nH]1` returned a melting point of 256 to 257 °C.

`CCN(C(=O)N(CC)c1ccccc1)c1ccccc1` had a melting point of 79 °C.

In turn, `O=C1[C@H]2Cc3ccccc3C[C@H]2C(=O)[C@@H]2Cc3ccccc3C[C@H]12` came in with a melting point of 224 to 227 °C.

On to `CCOC(=O)c1sc(SC(C)C)c2c1CC(C)(C)CC2=O`, for which the melting point lay in the range of 87 to 89 °C.

Consider `C=Cc1ccc(I)cc1`, for which the melting point was determined as 44 °C.

`NC(Cc1cc(F)cc(F)c1)C(=O)O` (racemic) registered a melting point of 243 to 245 °C.

For `O=[N+]([O-])CCc1ccccc1`, the melting point was -23 °C.

With `O=C(O)CCC(=O)Nc1ccc(S(=O)(=O)Nc2nccs2)cc1`, the melting point is 194 °C.

In turn, `Cc1ccc(-c2cc[nH]n2)cc1` yielded a melting point of 82 to 86 °C.

Consider `Cc1ccc(N=C(CNc2ccc(C)cc2)Nc2ccc(C)cc2)cc1`, for which the melting point amounted to 136 °C.

As for `CC(=O)C1CCC2C3CC=C4CC(O)CCC4(C)C3CCC12C` (stereo not drawn), the melting point was 193 °C.

`CC(C)(C)OC(=O)NC1(C(=O)O)CCc2ccccc2C1` (stereo not drawn) returned a melting point of 185 to 187 °C.

On to `CCOC(=O)Cc1ccncc1`, for which the melting point turned out to be 19 °C.

As to `O=C(O)CCc1cc(I)c(Oc2ccc(O)c(I)c2)c(I)c1`, the melting point came out at 200 °C.

As for `COC(C)(C)OC`, the melting point was -47 °C.

Turning to `Cc1ccc(S(=O)(=O)OCCCOS(=O)(=O)c2ccc(C)cc2)cc1`, the melting point was 90 to 93 °C.

As to `Cc1ccccc1N`, the melting point is -16.3 °C.

`CC(=O)O[C@H]1C[C@H]2[C@@H]3CCC4CCCC[C@]4(C)[C@H]3CC[C@]2(C)C1` (stereo partly drawn): the melting point was determined as 108 °C.

For the molecule `O=C(c1ccccn1)c1ccccn1`, the melting point lay in the range of 53 to 55 °C.

Consider `O=C(COc1ccc2ccccc2c1)ON1C(=O)CCC1=O`, for which the melting point lay in the range of 150 to 152 °C.

Consider `Cc1ccc(C(=O)O)cc1Br`, for which the melting point was determined as 208 °C.

Take `Cc1ccc(C(=O)C=CC(=O)O)cc1`: the melting point was 139 °C.

For the molecule `CC1(C(=O)O)CCC2(C)CCC3(C)C(=CC(=O)C4C5(C)CCC(O)C(C)(C)C5CCC43C)C2C1` (stereo not drawn), the melting point came to 296 °C.

For the molecule `O=Cc1cccc2ccsc12`, the melting point lay within 42 to 43.5 °C.

Molecule `Ic1ccc(Cc2ccccc2)cc1` gave a melting point of 38 to 40 °C.

Take `O=C1NC(=O)C(=Cc2cccc(C=C3C(=O)NC(=O)NC3=O)c2)C(=O)N1`: the melting point is 340 °C.

`COc1ccc(/C=C2\SC(=S)N(CN3CCOCC3)C2=O)cc1` came in with a melting point of 133 °C.

Take `COc1ccc2c(C(=S)N(C)CC(=O)O)cccc2c1C(F)(F)F`: the melting point is 164 °C.

The molecule `NC(=S)c1ccncc1` showed a melting point of 201 °C.

With `O=C(O)c1ccc(C2CCCCC2)cc1`, the melting point came to 196 °C.

In turn, `CCC(C(=O)Nc1ccc(C)cc1)C1CCC(OC)CC1` (stereo not drawn) came in with a melting point of 144 °C.

In turn, `COC(=O)C1=C(N)Oc2cc(C)n(CCc3ccccc3)c(=O)c2C1c1cccc([N+](=O)[O-])c1` (stereo not drawn) yielded a melting point of 216 °C.

Molecule `COc1ccc([N+](=O)[O-])cc1` returned a melting point of 54 °C.

`Cc1nc(-c2ccccc2)sc1N=C=O`: the melting point is 82 to 83 °C.

`O=C(CS)Nc1ccc(F)cc1` displayed a melting point of 92 to 94 °C.

`COP(=S)(OC)Oc1nc(Cl)c(Cl)cc1Cl`: the melting point is 46 °C.

The molecule `CC1=CC(=O)c2c(O)cccc2C1=O` returned a melting point of 78.5 °C.

In the case of `CC1(C)C=C(C(=O)O)C(C)(C)N1O`, the melting point turned out to be 202 °C.

For `ClCc1cccc(-c2ncccn2)c1`, the melting point fell in the range of 68 to 70 °C.

Molecule `CC(C)n1nnc2cc(C(=O)O)ccc21` displayed a melting point of 222 to 227 °C.

Turning to `CCCCCCCCCC(N)=O`, the melting point is 108 °C.

Regarding `c1ccc(-c2nc(-c3ccccn3)nc(-c3ccccn3)n2)nc1`, the melting point stood at 250 °C.

In the case of `CC(C)(C)NC(=O)[C@@H]1CC2CCCCC2CN1` (stereo partly drawn), the melting point was in the range of 115 to 117 °C.

The molecule `N#CC1=C(C#N)C(=O)C(NCc2ccccc2)=C(Cl)C1=O` came in with a melting point of 232 to 234 °C.

In turn, `Oc1n[nH]c2nc3ccccc3nc12` yielded a melting point of 304 to 305 °C.

Take `CCC(C(=O)Nc1ccc(C)cc1)c1ccc(C)cc1` (stereo not drawn): the melting point was 118 °C.

Regarding `CCOC(=O)C(C#N)=NNc1ccc(C(=O)O)cc1`, the melting point came out at 219 °C.

`O=[N+]([O-])c1ccc(O)c2ccccc12` returned a melting point of 166 °C.

Consider `C=C(C)C1Cc2c(ccc3c2OC2COc4cc(OC)c(OC)cc4C2C3=O)O1` (stereo not drawn), for which the melting point worked out at 176 °C.

The molecule `O=C(C1CCCNC1)N1CCCC1` (stereo not drawn) came in with a melting point of 57 to 64 °C.

With `Cc1c(C=O)cnn1-c1ccc(F)cc1`, the melting point was in the range of 113 to 115 °C.

Turning to `O=c1[nH]cc(C(F)(F)F)cc1[N+](=O)[O-]`, the melting point was 189 to 190 °C.

For the molecule `COc1ccc(C(O)C(C)(C)C(=O)O)cc1` (stereo not drawn), the melting point fell in the range of 115 to 117 °C.

As for `CNC1=CC(=O)c2ccccc2C1=O`, the melting point was found to be 230 °C.

In turn, `N#CC1(c2ccccc2)CCC(=O)CC1` registered a melting point of 115 °C.

`COc1ccccc1-c1ccc(C=CC(=O)c2ccccc2)o1` returned a melting point of 98 to 99 °C.

Regarding `CC(C)C(C)(C)[Si](C)(C)Cl`, the melting point is 15 °C.

As for `COc1c(O)ccc2c1C(=O)N1CCc3cc4c(cc3[C@@H]1C2)OCO4`, the melting point was 209 °C.

Molecule `C=C1CC2C3C=C(C)C4=CC(=O)CCC4(C)C3CCC2(C)C1(OC(C)=O)C(C)=O` (stereo not drawn) showed a melting point of 224 °C.

Molecule `Nc1cccc(CN2CCCC2)c1` showed a melting point of 72 to 74 °C.

In turn, `Nc1ccc(Cl)cc1C(=O)O` registered a melting point of 209 to 213 °C.

Turning to `CC(=O)OC1C2=C(C(=O)C(OC(C)=O)C3(CC3C)C2=O)C2(C)CCCC(C)(C)C2C1O` (stereo not drawn), the melting point was in the range of 172 to 173 °C.

`CCOP(=S)(NC(C)C)Oc1ccccc1C(=O)OC(C)C` (stereo not drawn) yielded a melting point of -12 °C.

`Cc1c(/C=C/c2ccc(Cl)cc2Cl)c2ccccc2n1S(=O)(=O)c1ccccc1` registered a melting point of 110 °C.

In turn, `O=C1CCCN1c1ccc(Cl)cc1` had a melting point of 95 to 98 °C.

`CCCCCCCCCCF` displayed a melting point of -35 °C.

Take `COc1ccc(C(=O)Nc2ccc(-c3ccc4nn(-c5ccccc5)nc4c3)cc2)cc1`: the melting point was in the range of 240 to 243 °C.

In the case of `Cc1c2c(c(CCl)c3c1CC3)CC2`, the melting point was 73 °C.

For the molecule `Oc1ccc(C2CCCCC2)cc1Cl`, the melting point came to 40.5 °C.

`CC(C)CC1=CC(=Cc2ccc(-c3ccc([N+](=O)[O-])cc3)o2)C(=O)O1` came in with a melting point of 162 to 163 °C.

In the case of `COC(=O)c1cc([N+](=O)[O-])ccc1SC`, the melting point is 130 to 132 °C.

`OC(c1ccc(Cl)cc1)c1ccc(Cl)cc1`: the melting point was determined as 92 °C.

On to `CSc1nc(N)cc(N)n1`, for which the melting point was 189 to 193 °C.

Turning to `FC1=C(F)C(F)(F)C1(F)F`, the melting point is -60 °C.

Turning to `c1cnc(-c2noc(C3CCNCC3)n2)cn1`, the melting point was 87 to 89 °C.

In the case of `Clc1cc(Cl)c2c(oc3ccc(Cl)c(Cl)c32)c1Cl`, the melting point came out at 210 °C.

In turn, `CN(C)c1nc2ccccc2cc1C=O` yielded a melting point of 52 to 53 °C.
